Source: US20110039825A1, “LIGANDS OF ALPHA-ADRENOCEPTORS, DOPAMINE, HISTAMINE, IMIDAZOLINE AND SEROTONIN RECEPTORS AND THEIR USE” (Alla Chem, LLC, priority 2007, published 2011)

Legend:
human α1D receptor = biological target: T1, human α1D receptor (Homo sapiens, UniProt P25100); test: radioligand binding to adrenergic receptor α1D ([3H] Prazosin); settings: 10 μM ligand
T1 construct: expressed in transfected cells; host or cells: HEK-293
T1 sequence (P25100 1-572): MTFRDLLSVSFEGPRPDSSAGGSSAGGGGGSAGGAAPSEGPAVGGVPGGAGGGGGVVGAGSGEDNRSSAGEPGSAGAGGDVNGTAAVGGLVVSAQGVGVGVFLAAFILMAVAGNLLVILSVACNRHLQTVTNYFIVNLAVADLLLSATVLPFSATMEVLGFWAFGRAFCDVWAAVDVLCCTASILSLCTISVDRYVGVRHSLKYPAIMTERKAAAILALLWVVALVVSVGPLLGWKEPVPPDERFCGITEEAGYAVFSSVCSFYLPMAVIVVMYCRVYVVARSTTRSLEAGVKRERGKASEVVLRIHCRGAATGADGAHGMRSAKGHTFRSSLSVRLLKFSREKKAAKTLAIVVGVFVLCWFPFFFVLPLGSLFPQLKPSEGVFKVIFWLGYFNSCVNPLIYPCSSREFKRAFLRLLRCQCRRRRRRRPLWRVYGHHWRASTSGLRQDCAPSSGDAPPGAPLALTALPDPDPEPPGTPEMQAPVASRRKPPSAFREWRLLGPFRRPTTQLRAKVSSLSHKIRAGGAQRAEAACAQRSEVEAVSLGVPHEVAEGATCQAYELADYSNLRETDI
Description: 6-C. […] For this purpose sDNA of human α1D receptor is expressed in HEK-293 cells, as it was described in [T L Theroux, T A Esbenshade, R D Peavy and K P Minneman. Coupling efficiencies of human alpha 1-adrenergic receptor subtypes: titration of receptor density and responsiveness with inducible and repressible expression vectors. Mol. Pharmacol.; 50: 1376-1387, 1996]. […] Prazosin is used as positive control.

adrenergic receptor α1B = biological target: T2, adrenergic receptor α1B (Rattus norvegicus, UniProt P15823); test: radioligand binding to adrenergic receptor α1B ([3H] Prazosin); settings: 10 μM ligand
T2 construct: membrane species from rat liver (rat of Wistar breed) are prepared; from tissue; host or cells: rat (Wistar) liver membranes
T2 sequence (P15823 1-515): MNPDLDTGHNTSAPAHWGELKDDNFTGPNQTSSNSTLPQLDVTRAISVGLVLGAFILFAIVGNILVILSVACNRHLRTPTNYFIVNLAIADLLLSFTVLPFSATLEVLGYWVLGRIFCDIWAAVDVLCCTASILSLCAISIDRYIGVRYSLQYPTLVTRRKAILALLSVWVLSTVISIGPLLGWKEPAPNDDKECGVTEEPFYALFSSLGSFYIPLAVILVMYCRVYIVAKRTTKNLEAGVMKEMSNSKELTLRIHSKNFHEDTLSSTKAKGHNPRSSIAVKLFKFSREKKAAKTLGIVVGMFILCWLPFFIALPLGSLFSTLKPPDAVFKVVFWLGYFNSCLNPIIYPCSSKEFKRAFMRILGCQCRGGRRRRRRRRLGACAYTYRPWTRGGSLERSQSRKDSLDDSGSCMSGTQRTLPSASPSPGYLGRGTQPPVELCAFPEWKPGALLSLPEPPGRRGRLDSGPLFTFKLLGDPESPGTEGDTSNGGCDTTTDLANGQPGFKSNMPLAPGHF
Description: Species heterogeneity of hepatic α1A-, α1B-, and α1C-subtypes. Biochem Biophys Res Commun. 186:760-7676 1992]. […] Prazosin is used as positive control.

human H2 receptor = biological target: T3, human H2 receptor (Homo sapiens, UniProt P25021); test: radioligand binding to histamine receptor H2 ([125I] Aminopotentidine); settings: 10 μM ligand
T3 construct: expressed in transfected cells; host or cells: CHO-K1
T3 sequence (P25021 whole entry): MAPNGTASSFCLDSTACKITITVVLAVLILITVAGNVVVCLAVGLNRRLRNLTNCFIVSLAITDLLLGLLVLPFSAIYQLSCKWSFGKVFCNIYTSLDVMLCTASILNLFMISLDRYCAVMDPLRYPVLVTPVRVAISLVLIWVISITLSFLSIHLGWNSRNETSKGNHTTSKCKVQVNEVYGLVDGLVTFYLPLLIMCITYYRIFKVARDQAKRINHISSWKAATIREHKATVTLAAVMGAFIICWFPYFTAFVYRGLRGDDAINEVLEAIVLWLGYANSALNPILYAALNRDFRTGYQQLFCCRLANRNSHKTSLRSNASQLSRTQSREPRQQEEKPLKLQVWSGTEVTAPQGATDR
Description: Proc Natl Acad Sci USA. 87(5): 1658-1662, 1990]. […] Proc Natl Acad Sci USA. 87(5): 1658-1662, 1990]. […] Tiotidine is used as positive control.

recombinant human 5-HT1A = biological target: T4, recombinant human 5-HT1A (Homo sapiens, UniProt P08908); test: radioligand binding to serotonin receptor 5-HT1A ([3H] 8-OH-DPAT); settings: ligand concentration 1 μM
T4 construct: expressed in transfected cells; host or cells: CHO
T4 sequence (P08908 1-422): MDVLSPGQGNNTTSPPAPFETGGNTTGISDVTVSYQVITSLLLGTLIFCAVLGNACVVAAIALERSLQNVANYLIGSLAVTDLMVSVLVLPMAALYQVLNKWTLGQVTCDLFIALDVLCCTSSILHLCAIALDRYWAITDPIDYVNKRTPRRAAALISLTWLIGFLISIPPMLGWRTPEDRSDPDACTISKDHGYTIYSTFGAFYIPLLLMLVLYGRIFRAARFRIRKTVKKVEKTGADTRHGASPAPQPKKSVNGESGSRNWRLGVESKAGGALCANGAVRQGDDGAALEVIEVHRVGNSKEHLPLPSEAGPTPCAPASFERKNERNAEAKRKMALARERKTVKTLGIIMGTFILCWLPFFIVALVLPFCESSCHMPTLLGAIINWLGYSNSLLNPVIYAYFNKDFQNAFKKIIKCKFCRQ
Description: J Pharmacol Exp Ther. 306(1): 301-309, 2003]. […] Metergoline is used as positive control.

human D4.2 receptor = biological target: T5, human D4.2 receptor (Homo sapiens, UniProt P21917, DEL265-296); test: radioligand binding to dopamine receptor D4.2 ([3H] Spiperone); settings: 10 μM ligand
T5 sequence (P21917 with tags, fused parts or gaps DEL265-296): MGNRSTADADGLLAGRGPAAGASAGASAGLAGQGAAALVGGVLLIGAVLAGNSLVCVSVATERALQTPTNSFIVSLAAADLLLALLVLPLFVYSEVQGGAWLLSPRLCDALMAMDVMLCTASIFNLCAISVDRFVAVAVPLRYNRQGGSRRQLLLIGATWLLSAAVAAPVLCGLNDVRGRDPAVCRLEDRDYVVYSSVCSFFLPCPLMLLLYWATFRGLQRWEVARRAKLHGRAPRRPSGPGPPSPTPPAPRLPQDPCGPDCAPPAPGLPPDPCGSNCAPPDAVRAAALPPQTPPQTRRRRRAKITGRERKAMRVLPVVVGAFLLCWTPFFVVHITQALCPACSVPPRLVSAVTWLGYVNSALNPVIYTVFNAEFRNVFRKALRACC
Description: Screening of the disclosed compounds for potential ability to interact with dopamine receptor D4.2 is carried out by method of radioligand binding. […] From the cells transfected in this way membrane species are prepared by homogenization of these cells in glass homogenizer with the subsequent separation of plasmatic membranes from cell nuclei, mitochondrias and cell wreckages by differential centrifugation. […] After incubation samples are filtered in vacuo on glass-microfiber filters G/F (Millipor, USA), filters are washed three times with cold solution of medium and radioactivity is measured by scintillation counter MicroBeta 340 (Perkin Elmer, USA). Nonspecific binding which makes up 10% of the overall binding is determined by incubation of membrane species with radioligand in the presence of 10 μM of Haloperidol.
Spiperone is used as positive control. Tested compounds' binding to the receptor is determined by their ability to displace radioligand and expressed in percent of displacement (% I). Values of % I are calculated according to the following equation:
wherein: TA—is overall radioactivity in the presence of radioligand only, CA—is radioactivity in the presence of radioligand and tested compound and NA—is radioactivity in the presence of radioligand and Haloperidol (10 μM).

[1] = biological target: T6, recombinant human 5-HT6 receptor (Homo sapiens, UniProt P50406); test: radioligand binding to serotonin receptor 5-HT6 ([3H] Lysergic acid diethylamide); settings: ligand concentration 1 μM; read-out: 5-HT6 % inhibition
T6 construct: expressed in transfected cells; host or cells: HeLa
T6 sequence (P50406 whole entry): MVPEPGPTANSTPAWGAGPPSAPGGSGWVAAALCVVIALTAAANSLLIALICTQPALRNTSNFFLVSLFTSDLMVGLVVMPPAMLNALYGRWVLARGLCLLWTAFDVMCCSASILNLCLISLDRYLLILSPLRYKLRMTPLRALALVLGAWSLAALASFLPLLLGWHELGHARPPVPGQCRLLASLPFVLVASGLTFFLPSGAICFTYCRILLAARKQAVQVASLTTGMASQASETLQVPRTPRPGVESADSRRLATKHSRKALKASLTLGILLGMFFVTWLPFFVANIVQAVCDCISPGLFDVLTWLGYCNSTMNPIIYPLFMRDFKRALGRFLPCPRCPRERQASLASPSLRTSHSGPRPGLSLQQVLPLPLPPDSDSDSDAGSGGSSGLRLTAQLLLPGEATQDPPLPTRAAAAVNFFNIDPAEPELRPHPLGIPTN
Description: Mol. Pharmacol. 43:320-327, 1993]. […] Methiothepin is used as positive control.

human H1 receptor = biological target: T7, human H1 receptor (Homo sapiens, UniProt P35367); test: radioligand binding to histamine receptor H1 ([3H] Pyrilamine); settings: 10 μM ligand
T7 construct: expressed in transfected cells; host or cells: CHO-K1
T7 sequence (P35367 whole entry): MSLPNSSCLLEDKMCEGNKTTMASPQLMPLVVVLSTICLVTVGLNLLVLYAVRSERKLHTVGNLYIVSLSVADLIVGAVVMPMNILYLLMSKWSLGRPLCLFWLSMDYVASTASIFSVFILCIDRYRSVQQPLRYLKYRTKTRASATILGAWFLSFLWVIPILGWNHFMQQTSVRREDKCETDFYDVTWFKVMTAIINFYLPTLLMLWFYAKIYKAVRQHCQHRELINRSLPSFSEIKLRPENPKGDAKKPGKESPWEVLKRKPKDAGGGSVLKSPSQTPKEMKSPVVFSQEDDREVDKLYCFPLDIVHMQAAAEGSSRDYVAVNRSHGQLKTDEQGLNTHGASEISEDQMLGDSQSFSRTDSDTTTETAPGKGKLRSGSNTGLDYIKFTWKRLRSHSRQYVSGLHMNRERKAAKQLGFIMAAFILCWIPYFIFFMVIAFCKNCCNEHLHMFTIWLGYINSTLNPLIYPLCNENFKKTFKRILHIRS
Description: Biochem Biophys Res Comm. 197(3): 1601-1608, 1993]. […] Biochem Biophys Res Comm. 197(3): 1601-1608, 1993].
Pyrilamine is used as positive control.

human D3 receptor = biological target: T8, human D3 receptor (Homo sapiens, UniProt P35462); test: radioligand binding to dopamine receptor D3 ([3H] Spiperone); settings: 10 μM ligand
T8 construct: expressed in transfected cells; host or cells: CHO
T8 sequence (P35462 whole entry): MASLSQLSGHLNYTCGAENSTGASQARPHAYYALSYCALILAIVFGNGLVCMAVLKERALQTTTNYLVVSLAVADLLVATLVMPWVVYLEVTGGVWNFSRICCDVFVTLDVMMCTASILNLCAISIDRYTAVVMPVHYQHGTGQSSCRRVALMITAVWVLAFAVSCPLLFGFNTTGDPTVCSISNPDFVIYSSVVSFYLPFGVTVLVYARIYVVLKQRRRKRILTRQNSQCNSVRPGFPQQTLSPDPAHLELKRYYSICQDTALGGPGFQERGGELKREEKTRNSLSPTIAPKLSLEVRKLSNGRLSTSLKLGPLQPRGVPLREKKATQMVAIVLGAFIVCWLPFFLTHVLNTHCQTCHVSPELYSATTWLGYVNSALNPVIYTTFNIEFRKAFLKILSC
Description: For this purpose sDNA of human D3 receptor is expressed in CHO cells, as it was described in [Sokoloff P, Giros B, Martres M-P, Bouthenet M-L and Schwartz J-C. Molecular cloning and characterization of novel dopamine receptor (D3) as target for neuroleptics. Nature. […] Molecular cloning and characterization of novel dopamine receptor (D3) as target for neuroleptics. Nature. […] Spiperone is used as positive control.

human D2S receptor = biological target: T9, human D2S receptor (Homo sapiens, UniProt P14416); test: radioligand binding to dopamine receptor D2S ([3H] Spiperone); settings: 10 μM ligand
T9 construct: expressed in transfected cells; host or cells: CHO
T9 sequence (P14416 1-414 isoform P14416-2): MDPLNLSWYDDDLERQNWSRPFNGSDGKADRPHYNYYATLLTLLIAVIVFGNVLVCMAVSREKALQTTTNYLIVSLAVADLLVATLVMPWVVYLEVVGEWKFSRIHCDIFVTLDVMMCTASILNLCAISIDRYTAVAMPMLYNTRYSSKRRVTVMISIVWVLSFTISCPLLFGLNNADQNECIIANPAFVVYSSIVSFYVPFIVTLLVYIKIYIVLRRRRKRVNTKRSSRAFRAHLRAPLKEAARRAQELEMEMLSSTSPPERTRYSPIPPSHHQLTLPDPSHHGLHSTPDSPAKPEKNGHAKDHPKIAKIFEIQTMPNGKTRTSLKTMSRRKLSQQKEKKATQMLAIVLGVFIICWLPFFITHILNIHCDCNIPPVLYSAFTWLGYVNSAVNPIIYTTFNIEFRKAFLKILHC
Description: 7-C. […] For this purpose sDNA of human D2S receptor is expressed in CHO cells, as described in [Hayes G, Biden T J, Selbie L A and Shine J, Structural subtypes of the dopamine D2 receptor are functionally distinct. […] Mol. Endocrinol. […] Mol. Endocrinol. […] Spiperone is used as positive control.

## Cc1ccc2c(c1)[C@H]1CN(C)CCC[C@@H]1N2CCc1ccc(C)nc1 (relative stereo) [1.6.2(11)]
Human α1D receptor
  α-Adrenoceptor α1D, % inhibition: 90%
Adrenergic receptor α1B
  α-Adrenoceptor α1B, % inhibition: 94%
Human H2 receptor
  Histamine receptor H2, % inhibition: 76%
Recombinant human 5-HT1A
  inhibition at 1 µM: 55%
Human D4.2 receptor
  Dopamine receptor D4.2, % inhibition: 6%
[1]
  inhibition at 1 µM: 93%
Human H1 receptor
  Histamine receptor H1, % inhibition: 100%
Human D3 receptor
  Dopamine receptor D3, % inhibition: 36%
Human D2S receptor
  Dopamine receptor D2S, % inhibition: 31%
